Laboratory results: US20240391954A1, “MC4R AGONIST PEPTIDES” (The Regents of the University of Michigan, priority 2021, published 2024)
Read-outs that look alike come from different tables or passages of the source. Positions of bridges follow the written chain, without caps; N, C: chain ends. Non-standard residues stand in square brackets, D forms with d. Residues, ends and D or L forms follow the SMILES beside them. dPhe(4-NH2) = Nc1ccc(C[C@@H](N)C(=O)O)cc1; dPhe(4-Br) = N[C@H](Cc1ccc(Br)cc1)C(=O)O; d2Nal = N[C@H](Cc1ccc2ccccc2c1)C(=O)O; d(hPhe) = N[C@H](CCc1ccccc1)C(=O)O; dNMeF = CN[C@H](Cc1ccccc1)C(=O)O; dTic = O=C(O)[C@H]1Cc2ccccc2CN1; Nle = CCCC[C@H](N)C(=O)O

Tests used:
[1] = molecular target: T1, human MC3R (Homo sapiens, UniProt P41968); assay: split-luciferase cAMP sensor assay, agonist mode (measurement window 1), hMC3R; type: cell-based; details: for Emax / EC50 / MC3R cAMP % max activation: agonist mode; for Emax: read-out: MC3R cAMP % max activation
T1 construct: expressed in transfected cells; host or cells: HEK-293 cells stably expressing the GScAMP22F split-luciferase cAMP sensor (parent reporter line from Promega); MC3R clone generated in-house, G418 selection
T1 sequence (P41968 whole entry): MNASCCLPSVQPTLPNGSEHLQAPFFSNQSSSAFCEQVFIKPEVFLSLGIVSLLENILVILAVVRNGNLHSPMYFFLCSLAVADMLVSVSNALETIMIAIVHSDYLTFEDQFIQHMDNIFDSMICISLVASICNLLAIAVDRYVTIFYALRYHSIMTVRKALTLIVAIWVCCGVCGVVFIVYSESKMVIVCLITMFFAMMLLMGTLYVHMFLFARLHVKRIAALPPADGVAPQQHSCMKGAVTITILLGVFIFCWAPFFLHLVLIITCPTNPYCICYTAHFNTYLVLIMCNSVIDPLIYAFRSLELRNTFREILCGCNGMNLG
Description: (§1) The stable cell lines were grown and maintained in selection media consisting of Dulbecco's modified Eagle media (DMEM) with 4.5 g/l D-glucose, and 4 mM L-glutamine (Thermo Fisher Scientific, Waltham, MA), supplemented with 10% fetal bovine serum, 100 units/ml penicillin, 100 μg/ml streptomycin, 2.5 μg/ml amphotericin B, 200 μg/ml hygromycin B (for positive selection of the GScAMP22f luciferase reporter), and Geneticin™ (G418) 700 μg/ml (for MC3R or MC4R selection). Actual serum concentration during the assay is estimated to be about 1%. Cell line identity is routinely verified by qPCR and MC3R-and MC4R-specific oligonucleotides.
(§2) The assay for the determination of the cAMP response in live cells was described previously. […] Cells were seeded at a density of 20,000 cells per well using 384-well poly-D lysine-coated, clear bottom, and black-wall assay plates (Corning Inc. Corning, NJ). Cells were allowed to attach to the plates for 18 to 24 h after which growth media was removed and 20 μl of 4% D-luciferin (Promega) in CO2 independent, serum-free medium (Thermo Fisher Scientific) was added to each well. […] Intracellular cAMP levels were measured using an FDSS 7000EX Functional Drug Screening System (Hamamatsu Photonics, Hamamatsu, Japan) in the Center for Chemical Genomics at the Life Sciences Institute. This instrument allowed the in-line addition of test-peptides and receptor agonists while simultaneously acquiring the luminescence signal from live cells. […] A submaximal forskolin (20 μM) concentration was also included to serve as a normalization reference to account for cell number variations and differences in assay transducer efficiency between cell lines.
(§3) With this set up it was possible to evaluate the direct effect of the test-peptides on the MC3R and MC4R cell lines during measurement window 1, while the antagonist profile in the presence of EC90 α-MSH was determined on measurement window 2. […] EC50 or IC50 potency values were determined by non-linear regression by fitting the data to a sigmoid four-parameter variable slope model using the GraphPad Prism version 8.4 software package (San Diego CA).

[2] = molecular target: T2, human MC4R (Homo sapiens, UniProt P32245); assay: split-luciferase cAMP sensor assay, agonist mode (measurement window 1), hMC4R; type: cell-based; details: for Emax / EC50 / MC4R cAMP % max activation: agonist mode; for Emax: read-out: MC4R cAMP % max activation
T2 construct: host or cells: HEK-293 cells stably expressing the GScAMP22F split-luciferase cAMP sensor and hMC4R, G418 selection
T2 sequence (P32245 whole entry): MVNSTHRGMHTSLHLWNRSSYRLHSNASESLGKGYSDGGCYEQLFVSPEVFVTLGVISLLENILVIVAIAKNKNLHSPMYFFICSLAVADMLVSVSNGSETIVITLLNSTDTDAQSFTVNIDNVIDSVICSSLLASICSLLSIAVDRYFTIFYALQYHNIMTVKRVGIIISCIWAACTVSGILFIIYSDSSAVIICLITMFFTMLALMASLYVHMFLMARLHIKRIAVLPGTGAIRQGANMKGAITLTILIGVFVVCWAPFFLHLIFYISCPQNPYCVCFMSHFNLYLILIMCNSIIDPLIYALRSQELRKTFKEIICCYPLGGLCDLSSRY
Description: as §1, §2, §3

[3] = hMC3R stable cell line, read-out: MC3R cAMP EC50
[4] = hMC4R stable cell line, read-out: MC4R cAMP EC50

SMILES | Emax ([1]; hMC3R stable cell line) [%] | EC50 [1, 3] [nM] | MC4R selectivity vs MC1R [2] | MC4R selectivity vs MC3R [2] | Emax ([2]; hMC4R stable cell line) [%] | further results
CC(=O)N[C@H]1CSSC[C@@H](C(N)=O)NC(=O)[C@H](Cc2ccccc2)NC(=O)[C@H](CCCNC(=N)N)NC(=O)[C@@H](Cc2ccc(Br)cc2)NC(=O)[C@H](CCCNC(=N)N)NC(=O)CNC1=O [CTX-1640, cyclo(Cys-Gly-Arg-D-Phe(4-Br)-Arg-Phe-Cys)] (Ac-CGR[dPhe(4-Br)]RFC-NH2; disulfide 1-7 (inferred)) | 27 | 10 | 3.72 | 3.09 | 100 | 
CC(=O)N[C@H]1CSSC[C@@H](C(N)=O)NC(=O)[C@H](Cc2c[nH]c3ccccc23)NC(=O)[C@H](CCCNC(=N)N)NC(=O)[C@@H](Cc2ccccc2)NC(=O)[C@H](Cc2c[nH]cn2)NC(=O)[C@@H](C)NC1=O [CTX-1207, cyclo(Cys-D-Ala-His-D-Phe-Arg-Trp-Cys)] |  |  |  |  |  | Emax ([1]; % maximal activation): 89%; EC50 ([1]; MC3R cAMP EC50, HEK-293 cells stably expressing hMC3R): 8.1 nM; MC4R selectivity vs MC3R ([1]; MC4R versus MC3R): 8.87; Emax ([2]; % maximal activation): 96%; EC50 ([2]; MC4R cAMP EC50, HEK-293 cells stably expressing hMC4R): 0.91 nM
CC(=O)N[C@@H](CCCNC(=N)N)C(=O)N[C@H]1CSSC[C@@H](C(N)=O)NC(=O)[C@@H](Cc2c[nH]c3ccccc23)NC(=O)[C@H](CCCNC(=N)N)NC(=O)[C@@H](Cc2ccccc2)N(C)C(=O)[C@H](CCCNC(=N)N)NC(=O)[C@@H](C)NC1=O [CTX-1272, Arg-cyclo(Cys-D-Ala-Arg-NMe-D-Phe-Arg-D-Trp-Cys)] (Ac-RC[dA]R[dNMeF]R[dW]C-NH2; disulfide 2-8 (inferred)) | 0.9 |  | 0.21 | 0.9 | 5.3 | 
CC(=O)N[C@@H](CCCNC(=N)N)C(=O)N[C@H]1CSSC[C@@H](C(N)=O)NC(=O)[C@H](Cc2c[nH]c3ccccc23)NC(=O)[C@H](CCCNC(=N)N)NC(=O)[C@@H](Cc2ccc3ccccc3c2)NC(=O)[C@@H]2CCCN2C(=O)[C@@H](C)NC1=O [CTX-2203] (Ac-RC[dA]P[d2Nal]RWC-NH2; disulfide 2-8 (inferred)) | 1 | 29 |  | 2.45 | 1.4 | EC50 [2, 4]: 12 nM
CCCC[C@H](NC(=O)[C@H](CCCNC(=N)N)NC(C)=O)C(=O)N[C@H]1CSSC[C@@H](C(N)=O)NC(=O)[C@H](Cc2c[nH]c3ccccc23)NC(=O)[C@H](CCCNC(=N)N)NC(=O)[C@@H](Cc2ccc(Br)cc2)NC(=O)[C@H](CCCNC(=N)N)NC1=O [CTX-1612, Arg-Nle-cyclo(Cys-Arg-D-Phe(4-Br)-Arg-Trp-Cys)] (Ac-R[Nle]CR[dPhe(4-Br)]RWC-NH2; disulfide 3-8 (inferred)) | 27 | 4.5 | 0.09 | 2.27 | 25 | EC50 [2, 4]: 2 nM
CCCC[C@H](NC(=O)[C@H](CCCNC(=N)N)NC(C)=O)C(=O)N[C@H]1CSSC[C@@H](C(N)=O)NC(=O)[C@H](Cc2c[nH]c3ccccc23)NC(=O)[C@H](CCCNC(=N)N)NC(=O)[C@@H](Cc2ccc(Br)cc2)NC(=O)[C@H](Cc2c[nH]cn2)NC1=O [CTX-1229, Arg-Nle-cyclo(Cys-His-D-Phe(4-Br)-Arg-Trp-Cys)] (Ac-R[Nle]CH[dPhe(4-Br)]RWC-NH2; disulfide 3-8 (inferred)) | 16 | 3.5 |  |  | 31 | MC4R selectivity vs MC1R ([2]; cell printed in nM (see doubts)): 18 nM
CC(=O)Nc1ccc(C[C@H]2NC(=O)[C@H](CCCNC(=N)N)NC(=O)[C@@H](C)NC(=O)[C@@H](NC(=O)[C@H](CCCNC(=N)N)NC(C)=O)CSSC[C@@H](C(N)=O)NC(=O)[C@@H](Cc3c[nH]c4ccccc34)NC(=O)[C@H](CCCNC(=N)N)NC2=O)cc1 [CTX-1245, Arg-cyclo(Cys-D-Ala-Arg-D-Phe(4-NH-Ac)-Arg-D-Trp-Cys)] (Ac-RC[dA]R[dPhe(4-NH2)](Ac)R[dW]C-NH2; disulfide 2-8) | 6.3 |  |  |  | 34 | 
CCCC[C@H](NC(=O)[C@H](CCCNC(=N)N)NC(C)=O)C(=O)N[C@H]1CSSC[C@@H](C(N)=O)NC(=O)[C@H](Cc2c[nH]c3ccccc23)NC(=O)[C@H](CCCNC(=N)N)NC(=O)[C@@H](Cc2ccc(Br)cc2)NC(=O)[C@H](CCCNC(=N)N)NC1=O [CTX-1230, Arg-Nle-cyclo(Cys-Arg-D-Phe(4-Br)-Arg-Trp-Cys)] (Ac-R[Nle]CR[dPhe(4-Br)]RWC-NH2; disulfide 3-8) |  | 3.9 | 0.18 | 1.95 |  | MC3R cAMP % max activation ([1]; hMC3R stable cell line): (23%); MC4R cAMP % max activation ([2]; hMC4R stable cell line): (27%); EC50 [2, 4]: 1.4 nM
CC(=O)N[C@@H](CCCNC(=N)N)C(=O)N[C@H]1CSSC[C@@H](C(N)=O)NC(=O)[C@@H](Cc2ccccc2)NC(=O)[C@H](CCCNC(=N)N)NC(=O)[C@@H](Cc2ccc(Br)cc2)NC(=O)[C@H](CCCNC(=N)N)NC(=O)[C@@H](C)NC1=O [CTX-1255, Arg-cyclo(Cys-D-Ala-Arg-D-Phe(4-Br)-Arg-D-Phe-Cys)] (Ac-RC[dA]R[dPhe(4-Br)]R[dF]C-NH2; disulfide 2-8 (inferred)) | 28 |  | 0.05 | 0.24 | 60 | 
CC(=O)N[C@@H](CCCNC(=N)N)C(=O)N[C@H]1CSSC[C@@H](C(N)=O)NC(=O)[C@@H](Cc2c[nH]c3ccccc23)NC(=O)[C@H](CCCNC(=N)N)NC(=O)[C@H]2Cc3ccccc3CN2C(=O)[C@H](CCCNC(=N)N)NC(=O)[C@@H](C)NC1=O [CTX-1273, Arg-cyclo(Cys-D-Ala-Arg-D-Tic-Arg-D-Trp-Cys)] (Ac-RC[dA]R[dTic]R[dW]C-NH2; disulfide 2-8) | 3.7 |  | 0.05 | 0.64 | 32 | 
CC(=O)N[C@@H](CCCNC(=N)N)C(=O)N[C@H]1CSSC[C@@H](C(=O)N[C@@H](CCCCN)C(=O)N2CCC[C@H]2C(N)=O)NC(=O)[C@@H](Cc2c[nH]c3ccccc23)NC(=O)[C@H](CCCNC(=N)N)NC(=O)[C@@H](Cc2ccc(Br)cc2)NC(=O)[C@H](CCCNC(=N)N)NC(=O)[C@@H](C)NC1=O [CTX-1217, Arg-cyclo(Cys-D-Ala-Arg-D-Phe(4-Br)-Arg-D-Trp-Cys)-Lys-Pro] (Ac-RC[dA]R[dPhe(4-Br)]R[dW]CKP-NH2; disulfide 2-8) | 13 | 4 | 1.12 | 2.73 | 69 | 
CC(=O)N[C@@H](CCCNC(=N)N)C(=O)N[C@H]1CSSC[C@@H](C(N)=O)NC(=O)[C@@H](Cc2c[nH]c3ccccc23)NC(=O)[C@H](CCCNC(=N)N)NC(=O)[C@@H](CCc2ccccc2)NC(=O)[C@H](CCCNC(=N)N)NC(=O)[C@@H](C)NC1=O [CTX-1239, Arg-cyclo(Cys-D-Ala-Arg-D-Hph-Arg-D-Trp-Cys)] (Ac-RC[dA]R[d(hPhe)]R[dW]C-NH2; disulfide 2-8) |  |  | 0.1 | 0.3 |  | MC3R cAMP % max activation ([1]; hMC3R stable cell line): (7.9%); MC4R cAMP % max activation ([2]; hMC4R stable cell line): (28%)
CC(=O)N[C@@H](CCCNC(=N)N)C(=O)N[C@H]1CSSC[C@@H](C(N)=O)NC(=O)[C@@H](Cc2c[nH]c3ccccc23)NC(=O)[C@H](CCCNC(=N)N)NC(=O)[C@@H](Cc2ccccc2)NC(=O)[C@H](Cc2c[nH]cn2)NC(=O)[C@@H](C)NC1=O [CTX-1262, Arg-cyclo(Cys-D-Ala-His-D-Phe-Arg-D-Trp-Cys)] |  |  |  |  |  | Emax ([1]; % maximal activation): 65%; Emax ([2]; % maximal activation): 88%
